The values below come from US4554275A, “Triazine derivatives” (Nippon Shinyaku Co., Ltd., priority 1982, dated 1985).

One series deals with male mice. The following applies: mouse, in vivo, po, 2000 mg/kg.
A further series deals with Carrageenin Edema. Put plainly: Carrageenin edema inhibitory action (rat hind paw swelling). In kind it is in vivo, male rats (SLC-SD strain). The note with it: po, 3 h, 400 mg/kg orally, one hour before 0.1 ml of 0.5% carrageenin into right hind paw, measured three hours later, vs control group, read-out: Carrageenin Edema Inhibitory Rate (%). Here is the method: Five male rats (SLC-SD strain, five weeks age, supplied by Seidokyo) were used in one group in the experiment. Drugs to be tested were given orally at a dose of 400 mg/kg and, one hour later, 0.1 ml of 0.5% carrageenin was injected subcutaneously to right hind paw. Three hours later, volumes of the right hind paws were measured, volumes of the paws before the carrageenin injection were deducted therefrom, and the resulting volumes were defined as a degree of swelling.
The inhibitory rates were calculated from mean degree of swelling of the drug-administered groups and the control group and the result is shown in Table 1.
A general note: Carrageenan injected into the paw causes an acute inflammation.

Consider `COc1cc2ccccc2cc1-c1nc(N)nc(N)n1` [Example 1, 2,4-diamino-6-(2-methoxy-3-naphthyl)-s-triazine], for which the Acute toxicity result with male mice was “no toxicity was observed”. Also, the inhibition in vivo at 400 mg/kg in the series with Carrageenin Edema was 60.3%.

As to `COc1ccc(-c2nc(N)nc(NC(=O)c3cccnc3)n2)c2ccccc12` [Example 2, 2-amino-4-nicotinoylamino-6-(1-methoxy-4-naphthyl)-s-triazine], in the series with male mice, the Acute toxicity result is on record as “no toxicity was observed”. Besides, the inhibition in vivo at 400 mg/kg in the series on Carrageenin Edema was 34.7%.

As to `Nc1nc(NC(=O)c2cccnc2)nc(-c2cc3ccccc3cc2F)n1` [Example 3, 2-amino-4-nicotinoylamino-6-(2-fluoro-3-naphthyl)-s-triazine], in the series on male mice, the Acute toxicity result is “no toxicity was observed”. Besides, in the series with Carrageenin Edema, the inhibition in vivo at 400 mg/kg is 56.5%.

`Nc1nc(N)nc(-c2cc3ccccc3cc2OCc2ccccc2)n1` [Example 5, 2,4-diamino-6-(2-benzyloxy-3-naphthyl)-s-triazine]: in the series on Carrageenin Edema, the inhibition in vivo at 400 mg/kg was 30.4%.

Take `Nc1nc(N)nc(-c2ccc(OCc3ccccc3)c3ccccc23)n1` [Example 6, 2,4-diamino-6-(1-benzyloxy-4-naphthyl)-s-triazine]: the inhibition in vivo at 400 mg/kg in the series on Carrageenin Edema turned out to be 30.9%.

As to `COc1ccc2ccccc2c1-c1nc(N)nc(N)n1` [Example 7, 2,4-diamino-6-(2-methoxy-1-naphthyl)-s-triazine], in the series with Carrageenin Edema, the inhibition in vivo at 400 mg/kg is 44.6%.

As for `COc1ccc(-c2nc(N)nc(N)n2)c2ccccc12` [Example 9, 2,4-diamino-6-(1-methoxy-4-naphthyl)-s-triazine], the Acute toxicity entry in the series on male mice is “no toxicity was observed”. The inhibition in vivo at 400 mg/kg with Carrageenin Edema stood at 52.4%.

For `Nc1nc(N)nc(-c2ccc3cc(OCc4ccccc4)ccc3c2)n1` [Example 10, 2,4-diamino-6-(2-benzyloxy-6-naphthyl)-s-triazine], the inhibition in vivo at 400 mg/kg in the series with Carrageenin Edema came to 50.3%.

With `Nc1nc(N)nc(-c2cc3ccccc3cc2F)n1` [Example 11, 2,4-diamino-6-(2-fluoro-3-naphthyl)-s-triazine], the inhibition in vivo at 400 mg/kg with Carrageenin Edema worked out at 48.8%.

Take `Nc1nc(N)nc(-c2cc3ccccc3cc2Cl)n1` [Example 12, 2,4-diamino-6-(2-chloro-3-naphthyl)-s-triazine]: the Acute toxicity entry in the series on male mice is listed as “no toxicity was observed”. In the series on Carrageenin Edema, the inhibition in vivo at 400 mg/kg is 61.3%.

For `Nc1nc(N)nc(-c2cc3ccccc3cc2Br)n1` [Example 13, 2,4-diamino-6-(2-bromo-3-naphthyl)-s-triazine], the inhibition in vivo at 400 mg/kg in the series with Carrageenin Edema stood at 49.1%.

On to `Nc1nc(N)nc(-c2ccc(Cl)c3ccccc23)n1` [Example 14, 2,4-diamino-6-(1-chloro-4-naphthyl)-s-triazine], for which the inhibition in vivo at 400 mg/kg in the series on Carrageenin Edema is 42.6%.

In the case of `Nc1nc(N)nc(-c2ccc(Br)c3ccccc23)n1` [Example 15, 2,4-diamino-6-(1-bromo-4-naphthyl)-s-triazine], the inhibition in vivo at 400 mg/kg with Carrageenin Edema is 48.4%.

On to `COc1ccc2cc(-c3nc(N)nc(N)n3)ccc2c1` [Example 16, 2,4-diamino-6-(2-methoxy-6-naphthyl)-s-triazine], for which, in the series on Carrageenin Edema, the inhibition in vivo at 400 mg/kg was found to be 51.1%.

For `Nc1nc(NC(=O)c2cccnc2)nc(-c2ccc3ccccc3c2)n1` [Example 18, 2-Amino-4-nicotinoylamino-6-beta-naphthyl-s-triazine], the Acute toxicity entry with male mice is “no toxicity was observed”. Besides, the inhibition in vivo at 400 mg/kg in the series on Carrageenin Edema is 24.8%.

Turning to `COc1cc2ccccc2cc1-c1nc(N)nc(NC(=O)c2cccnc2)n1` [Example 19, 2-amino-4-nicotinamido-6-(2-methoxy-3-naphthyl)-s-triazine], the inhibition in vivo at 400 mg/kg with Carrageenin Edema is 35%.

As for `Nc1nc(NC(=O)c2cccnc2)nc(-c2ccc3cc(OCc4ccccc4)ccc3c2)n1` [Example 23, 2-amino-4-nicotin-amido-6-(6-benzyloxy-2-naphthyl)-s-triazine], the Acute toxicity result with male mice is given as “no toxicity was observed”. For the same compound, the inhibition in vivo at 400 mg/kg in the series with Carrageenin Edema was 28.1%.

Regarding `Nc1nc(NC(=O)c2cccnc2)nc(-c2ccc(Cl)c3ccccc23)n1` [Example 24, 2-amino-4-nicotinamido-6-(1-chloro-4-naphthyl)-s-triazine], the Acute toxicity result with male mice is given as “no toxicity was observed”. Besides, the inhibition in vivo at 400 mg/kg in the series with Carrageenin Edema is 25%.

As for `Nc1nc(NC(=O)c2cccnc2)nc(-c2ccc(Br)c3ccccc23)n1` [Example 25, 2-amino-4-nicotinamidio-6-(1-bromo-4-naphthyl)-s-triazine], the inhibition in vivo at 400 mg/kg with Carrageenin Edema turned out to be 25.1%.

`Nc1nc(NC(=O)c2cccnc2)nc(-c2cc3ccccc3cc2Br)n1` [Example 27, 2-amino-4-nicotinamido-6-(2-bromo-3-naphthyl)-s-triazine]: the inhibition in vivo at 400 mg/kg with Carrageenin Edema was found to be 33.5%.

On to `Nc1nc(NC(=O)c2cccnc2)nc(-c2ccc3ccccc3c2O)n1` [Example 28, 2-amino-4-nicotinamido-6-(1-hydroxy-2-naphthyl)-s-triazine], for which, in the series on male mice, the Acute toxicity result is recorded as “no toxicity was observed”. Moreover, the inhibition in vivo at 400 mg/kg in the series with Carrageenin Edema came to 19.4%.
